Data reported in the supplement of paper PMC11061612.

How the values were obtained:
[1] = test system: BICR78 (Oral Cavity Carcinoma); test: Bliss excess, mean over the matrix (fraction); higher = more synergy
Outline: (§1)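 Cell lines in DMEM/F12 or RPMI with 10% FBS were plated in 1536-well plates, held 24 hours at 37°C, 5% CO2, then given two-drug dose matrices for 72 hours (DMSO typically 0.2%). Viability was read by CellTiter-Glo 2.0 luminescence and scaled as inhibition from 0 (vehicle wells) to 1 (blank wells). Combination Emax is the second-highest inhibition in the matrix; Bliss excess is observed combination effect minus expected EA + EB − EA·EB, EA and EB being single-agent effects.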

[2] = test system: Saos-2 (Osteosarcoma); test: as above
Outline: as §1

[3] = test system: WSU-DLCL2 (B-Cell Non-Hodgkin's Lymphoma); test: as above
Outline: as §1

[4] = test system: D-283MED (Other Solid Carcinomas); test: as above
Outline: as §1

[5] = test system: A172 (Glioblastoma); test: as above
Outline: as §1

[6] = test system: HCC-827 (Lung Adenocarcinoma); test: as above
Outline: as §1

[7] = test system: ETK-1 (Biliary Tract Carcinoma); test: combination Emax (second highest fraction inhibited in the dose matrix, 72 h); higher = more inhibition; extreme values may be limits of the assay
Outline: as §1

[8] = test system: SLVL (B-Cell Non-Hodgkin's Lymphoma); test: as above
Outline: as §1

[9] = test system: RCC10RGB (Kidney Carcinoma); test: as above
Outline: as §1

[10] = test system: CAL-39 (Other Solid Carcinomas); test: as above
Outline: as §1

[11] = test system: Saos-2 (Osteosarcoma); test: as above
Outline: as §1

[12] = test system: SNU-61 (Colorectal Carcinoma); test: as above
Outline: as §1

[13] = test system: EKVX (Non-Small Cell Lung Carcinoma); test: as above
Outline: as §1

[14] = test system: YT (Other Blood Carcinomas); test: as above
Outline: as §1

[15] = test system: SKN-3 (Head and Neck Carcinoma); test: as above
Outline: as §1

[16] = test system: MSTO-211H (Mesothelioma); test: as above
Outline: as §1

[17] = test system: HCC38 (Breast Carcinoma); test: as above
Outline: as §1

[18] = test system: P31-FUJ (Acute Myeloid Leukemia); test: as above
Outline: as §1

[19] = test system: MES-SA (Other Solid Carcinomas); test: as above
Outline: as §1

[20] = test system: HOP-92 (Non-Small Cell Lung Carcinoma); test: as above
Outline: as §1
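Throughout, for Bliss excess, mean over the matrix: after 72 h of two-drug dosing.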

| Structure (SMILES) | Bliss excess [1] | Bliss excess [2] | Bliss excess [3] | Bliss excess [4] | Bliss excess [5] | Bliss excess [6] | combination Emax [7] | combination Emax [8] | combination Emax [9] | combination Emax [10] | combination Emax [11] | combination Emax [12] | combination Emax [13] | combination Emax [14] | combination Emax [15] | combination Emax [16] | combination Emax [17] | combination Emax [18] | combination Emax [19] | combination Emax [20] |
| --- | --- | --- | --- | --- | --- | --- | --- | --- | --- | --- | --- | --- | --- | --- | --- | --- | --- | --- | --- | --- |
| Cc1cc2ncnn2cc1Nc1ncc2c(n1)n(C1CCOCC1)c(=O)n2C [AZD7648] + CN(C)CCCOc1ccc(-c2ccc3ncc4c(c3c2)n(C2CCOCC2)c(=O)n4C)cn1 [AZD0156] (first compound max 10 µM, 7x7, partner max 1 µM) | 0.0054 | -0.016 | 0.0127 | -0.0339 | -0.034 | 0.0386 | 0.155 | 0.404 | 0.3 | 0.322 | 0.171 | 0.172 | 0.315 | 0.705 | 0.111 | 0.33 | 0.233 | 0.566 | 0.475 | 0.231 |
| C[C@@H]1COCCN1c1cc(C2([S@](C)(=N)=O)CC2)nc(-c2ccnc3[nH]ccc23)n1 [AZD6738] + O=C(c1cc(Cc2n[nH]c(=O)c3ccccc23)ccc1F)N1CCN(C(=O)C2CC2)CC1 [Olaparib] (first compound max 10 µM, 7x7, partner max 10 µM) | -0.0431 | 0.0118 | -0.0119 | -0.0148 | -0.0398 | -0.0086 | 0.678 | 0.834 | 0.441 | 0.526 | 0.466 | 0.27 | 0.32 | 0.75 | 0.391 | 0.705 | 0.611 | 0.877 | 0.643 | 0.667 |
| Cc1c2c(nn1C)CSCc1cc(n(C)n1)CSc1cc(c3ccccc3c1)OCCCc1c(C(=O)O)n(C)c3c-2c(Cl)ccc13 [AZD5991] + CCN(CCO)CCCOc1ccc2c(Nc3cc(CC(=O)Nc4cccc(F)c4)[nH]n3)ncnc2c1 [AZD2811] (first compound max 1 µM, 7x7, partner max 1 µM) | 0.0088 | 0.0534 | 0.0804 | 0.051 | -0.0101 | 0.0011 | 0.294 | 0.768 | 0.292 | 0.815 | 0.816 | 0.254 | 0.226 | 1 | 0.271 | 0.443 | 0.521 | 0.994 | 0.806 | 0.689 |
| CN(CCO)CC[C@H](CSc1ccccc1)Nc1ccc(S(=O)(=O)NC(=O)c2ccc(N3CCC([C@@H](O)c4ccccc4-c4ccc(Cl)cc4)CC3)cc2)cc1S(=O)(=O)C(F)(F)F [AZD4320] + C1CN(CCC1(C(=O)N[C@@H](CCO)C2=CC=C(C=C2)Cl)N)C3=NC=NC4=C3C=CN4 [Capivasertib] (first compound max 1 µM, 7x7, partner max 3 µM) | -0.0097 | 0.0035 | 0.0691 | 0.0139 | -0.0588 | -0.0644 | 0.175 | 0.622 | 0.237 | 0.286 | 0.399 | 0.053 | 0.269 | 0.212 | 0.062 | 0.48 | 0.848 | 0.869 | 0.282 | 0.891 |
| CN(CCO)CC[C@H](CSc1ccccc1)Nc1ccc(S(=O)(=O)NC(=O)c2ccc(N3CCC([C@@H](O)c4ccccc4-c4ccc(Cl)cc4)CC3)cc2)cc1S(=O)(=O)C(F)(F)F [AZD4320] + Cn1cnc2c(F)c(Nc3ccc(Br)cc3Cl)c(C(=O)NOCCO)cc21 [Selumetinib] (first compound max 1 µM, 7x7, partner max 3 µM) | 0.0362 | -0.0016 | 0.0155 | 0.0172 | -0.0071 | -0.0011 | 0.3 | 0.966 | 0.576 | 0.604 | 0.517 | 0.512 | 0.314 | 0.737 | 0.355 | 0.531 | 0.907 | 0.901 | 0.246 | 0.963 |
| CC1(C)CCC(CN2CCN(c3ccc(C(=O)NS(=O)(=O)c4ccc(NCC5CCOCC5)c([N+](=O)[O-])c4)c(Oc4cnc5[nH]ccc5c4)c3)CC2)=C(c2ccc(Cl)cc2)C1 [Venetoclax] + C[C@@H](Nc1cc(F)cc(F)c1)c1cc(C(=O)N(C)C)cc2c(=O)cc(N3CCOCC3)oc12 [AZD8186] (first compound max 1 µM, 7x7, partner max 3 µM) | -0.0423 | 0 | 0.0951 | -0.0149 | -0.0414 | -0.0146 | 0.212 | 0.746 | 0.447 | 0.841 | 0.34 | 0.103 | 0.367 | 0.631 | 0.148 | 0.207 | 0.16 | 0.866 | 0.168 | 0.206 |
| CN(CCO)CC[C@H](CSc1ccccc1)Nc1ccc(S(=O)(=O)NC(=O)c2ccc(N3CCC([C@@H](O)c4ccccc4-c4ccc(Cl)cc4)CC3)cc2)cc1S(=O)(=O)C(F)(F)F [AZD4320] + Cc1cc2ncnn2cc1Nc1ncc2c(n1)n(C1CCOCC1)c(=O)n2C [AZD7648] (first compound max 1 µM, 7x7, partner max 10 µM) | -0.0167 | -0.0389 | 0.0591 | 0.0051 | -0.0828 | -0.0339 | 0.209 | 0.605 | 0.265 | 0.371 | 0.21 | 0.107 | 0.237 | 0.675 | 0.0826 | 0.327 | 0.873 | 0.858 | 0.226 | 0.891 |
| Cc1c2c(nn1C)CSCc1cc(n(C)n1)CSc1cc(c3ccccc3c1)OCCCc1c(C(=O)O)n(C)c3c-2c(Cl)ccc13 [AZD5991] + Cc1cc2ncnn2cc1Nc1ncc2c(n1)n(C1CCOCC1)c(=O)n2C [AZD7648] (first compound max 1 µM, 7x7, partner max 10 µM) | -0.0172 | -0.014 | -0.0422 | -0.0158 | -0.0426 | -0.0476 | 0.294 | 0.487 | 0.342 | 0.58 | 0.285 | 0.19 | 0.303 | 1 | 0.179 | 0.194 | 0.335 | 0.965 | 0.221 | 0.448 |
| CCN(CCO)CCCOc1ccc2c(Nc3cc(CC(=O)Nc4cccc(F)c4)[nH]n3)ncnc2c1 [AZD2811] + O=C(c1cc(Cc2n[nH]c(=O)c3ccccc23)ccc1F)N1CCN(C(=O)C2CC2)CC1 [Olaparib] (first compound max 1 µM, 7x7, partner max 10 µM) | -0.0114 | 0.0395 | 0.0463 | -0.0234 | 0.044 | -0.0162 | 0.216 | 0.723 | 0.211 | 0.324 | 0.456 | 0.171 | 0.159 | 0.309 | 0.0796 | 0.35 | 0.287 | 0.83 | 0.519 | 0.363 |
| Cc1c2c(nn1C)CSCc1cc(n(C)n1)CSc1cc(c3ccccc3c1)OCCCc1c(C(=O)O)n(C)c3c-2c(Cl)ccc13 [AZD5991] + C1CN(CCC1(C(=O)N[C@@H](CCO)C2=CC=C(C=C2)Cl)N)C3=NC=NC4=C3C=CN4 [Capivasertib] (first compound max 1 µM, 7x7, partner max 3 µM) | -0.0198 | 0.0473 | 0.013 | 0.0094 | -0.0001 | -0.0212 | 0.254 | 0.567 | 0.298 | 0.384 | 0.52 | 0.117 | 0.301 | 1 | 0.121 | 0.245 | 0.506 | 0.99 | 0.367 | 0.402 |
| Cc1cc2ncnn2cc1Nc1ncc2c(n1)n(C1CCOCC1)c(=O)n2C [AZD7648] + O=C(c1cc(Cc2n[nH]c(=O)c3ccccc23)ccc1F)N1CCN(C(=O)C2CC2)CC1 [Olaparib] (first compound max 10 µM, 7x7, partner max 10 µM) | -0.0056 | -0.0322 | -0.0096 | -0.0398 | -0.007 | -0.028 | 0.323 | 0.455 | 0.18 | 0.174 | 0.14 | 0.0443 | 0.147 | 0.575 | 0.0538 | 0.218 | 0.07 | 0.34 | 0.637 | 0.292 |
| COc1cccc(OCCCN)c1-c1cc(Nc2cnc(C#N)cn2)n[nH]1 [Prexasertib] + O=C(c1cc(Cc2n[nH]c(=O)c3ccccc23)ccc1F)N1CCN(C(=O)C2CC2)CC1 [Olaparib] (first compound max 1 µM, 7x7, partner max 10 µM) | -0.0261 | -0.0123 | -0.0311 | -0.0232 | -0.0474 | -0.0262 | 0.578 | 0.974 | 0.479 | 0.387 | 0.806 | 0.474 | 0.194 | 0.966 | 0.616 | 0.806 | 0.677 | 1 | 0.809 | 0.665 |
